From paper PMC10648541, “Design, Synthesis, and Antiproliferative Activity of Selective Histone Deacetylases 6 Inhibitors Containing a Tetrahydropyridopyrimidine Scaffold” (Molecules, 2023)

Columns and labels:
[1] = biological target: T1, HDAC4 (Homo sapiens, UniProt P56524); assay: In vitro HDAC enzyme assay (Reaction Biology Corporation), HDAC4; assay type: biochemical; conditions: Table 2 isozyme screen; duplicate, SD < 15%
T1 construct: purchased Reaction Biology Corporation

[2] = biological target: T2, HDAC5 (Homo sapiens, UniProt Q9UQL6); assay: In vitro HDAC enzyme assay (Reaction Biology Corporation), HDAC5; assay type: biochemical; conditions: Table 2 isozyme screen; duplicate, SD < 15%
T2 construct: purchased Reaction Biology Corporation
T2 sequence (Q9UQL6 whole entry): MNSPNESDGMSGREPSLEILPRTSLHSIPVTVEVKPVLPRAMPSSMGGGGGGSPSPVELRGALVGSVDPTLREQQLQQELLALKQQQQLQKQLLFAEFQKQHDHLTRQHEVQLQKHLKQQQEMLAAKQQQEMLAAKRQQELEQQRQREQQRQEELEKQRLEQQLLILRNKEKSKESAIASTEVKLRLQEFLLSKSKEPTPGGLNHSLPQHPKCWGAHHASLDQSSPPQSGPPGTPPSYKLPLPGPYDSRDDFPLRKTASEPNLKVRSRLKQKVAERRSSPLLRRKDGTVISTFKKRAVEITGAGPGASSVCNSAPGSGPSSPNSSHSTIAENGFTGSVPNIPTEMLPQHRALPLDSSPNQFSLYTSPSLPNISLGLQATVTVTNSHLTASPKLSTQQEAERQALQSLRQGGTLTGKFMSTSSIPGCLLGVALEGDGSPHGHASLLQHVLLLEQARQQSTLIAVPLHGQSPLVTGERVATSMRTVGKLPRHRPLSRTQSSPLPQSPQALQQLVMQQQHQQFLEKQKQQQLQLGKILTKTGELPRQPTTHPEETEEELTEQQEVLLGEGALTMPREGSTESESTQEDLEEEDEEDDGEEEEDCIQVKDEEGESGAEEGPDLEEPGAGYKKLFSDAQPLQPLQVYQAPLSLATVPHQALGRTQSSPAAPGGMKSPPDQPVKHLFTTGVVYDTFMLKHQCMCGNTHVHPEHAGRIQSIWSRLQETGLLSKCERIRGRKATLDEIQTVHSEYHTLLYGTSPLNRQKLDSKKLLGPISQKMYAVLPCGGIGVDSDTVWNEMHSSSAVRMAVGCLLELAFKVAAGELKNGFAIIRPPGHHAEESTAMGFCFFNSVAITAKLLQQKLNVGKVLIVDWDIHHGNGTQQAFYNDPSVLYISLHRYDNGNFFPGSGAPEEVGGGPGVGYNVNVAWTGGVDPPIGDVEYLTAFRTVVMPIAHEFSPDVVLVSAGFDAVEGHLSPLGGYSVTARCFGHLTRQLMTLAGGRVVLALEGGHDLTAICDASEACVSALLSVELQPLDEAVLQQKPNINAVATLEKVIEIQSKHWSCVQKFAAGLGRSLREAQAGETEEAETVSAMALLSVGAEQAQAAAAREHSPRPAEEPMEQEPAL

[3] = biological target: T3, HDAC8 (Homo sapiens, UniProt Q9BY41); assay: In vitro HDAC enzyme assay (Reaction Biology Corporation), HDAC8; assay type: biochemical; conditions: Table 2 isozyme screen; duplicate, SD < 15%
T3 construct: purchased Reaction Biology Corporation
T3 sequence (Q9BY41 whole entry): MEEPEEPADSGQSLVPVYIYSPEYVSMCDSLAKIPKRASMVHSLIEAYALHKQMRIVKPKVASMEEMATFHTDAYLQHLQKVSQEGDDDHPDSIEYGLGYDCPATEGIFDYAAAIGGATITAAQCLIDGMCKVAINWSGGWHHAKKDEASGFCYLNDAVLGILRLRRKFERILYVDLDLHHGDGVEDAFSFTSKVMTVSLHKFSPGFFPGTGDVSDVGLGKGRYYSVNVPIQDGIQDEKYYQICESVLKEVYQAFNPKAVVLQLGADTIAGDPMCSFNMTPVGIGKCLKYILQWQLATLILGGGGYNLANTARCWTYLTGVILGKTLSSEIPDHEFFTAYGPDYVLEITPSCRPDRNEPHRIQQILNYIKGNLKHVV

[4] = test system: CCRF-CEM; assay: NCI-60 antiproliferative screening, CCRF-CEM; assay type: cell-based; conditions: Homo sapiens, CCRF-CEM (Leukemia), read-out: Inhibition% values at 10 μM concentration
Description: (§1) Then, 8f was submitted to NCI for antiproliferative evaluation against 59 different tumor cell lines. The cancer types of the NCI-60 program include leukemia, non-small cell lung cancer (NSCLC), colon cancer, CNS cancer, melanoma, ovary cancer, renal cancer, prostate cancer, and breast cancer.

[5] = test system: HL60; assay: NCI-60 antiproliferative screening, HL60; assay type: cell-based; conditions: Homo sapiens, HL-60, HL60 (Leukemia), read-out: Inhibition% values at 10 μM concentration
Description: as §1

[6] = test system: EKVX; assay: NCI-60 antiproliferative screening, EKVX; assay type: cell-based; conditions: Homo sapiens, EKVX (Non-Small Cell Lung Cancer), read-out: Inhibition% values at 10 μM concentration
Description: as §1

[7] = test system: NCI-H226; assay: NCI-60 antiproliferative screening, NCI-H226; assay type: cell-based; conditions: Homo sapiens, NCI-H226 (Non-Small Cell Lung Cancer), read-out: Inhibition% values at 10 μM concentration
Description: as §1

[8] = test system: NCI-H23; assay: NCI-60 antiproliferative screening, NCI-H23; assay type: cell-based; conditions: Homo sapiens, NCI-H23 (Non-Small Cell Lung Cancer), read-out: Inhibition% values at 10 μM concentration
Description: as §1

[9] = test system: NCI-H460; assay: NCI-60 antiproliferative screening, NCI-H460; assay type: cell-based; conditions: Homo sapiens, NCI-H460 (Non-Small Cell Lung Cancer), read-out: Inhibition% values at 10 μM concentration
Description: as §1

[10] = test system: HT29; assay: NCI-60 antiproliferative screening, HT29; assay type: cell-based; conditions: Homo sapiens, HT-29, HT29 (Colon Cancer), read-out: Inhibition% values at 10 μM concentration
Description: as §1

[11] = test system: KM12; assay: NCI-60 antiproliferative screening, KM12; assay type: cell-based; conditions: Homo sapiens, KM12 (Colon Cancer), read-out: Inhibition% values at 10 μM concentration
Description: as §1

[12] = test system: SNB-19; assay: NCI-60 antiproliferative screening, SNB-19; assay type: cell-based; conditions: Homo sapiens, SNB-19 (CNS Cancer), read-out: Inhibition% values at 10 μM concentration
Description: as §1

[13] = test system: SNB-75; assay: NCI-60 antiproliferative screening, SNB-75; assay type: cell-based; conditions: Homo sapiens, SNB-75 (CNS Cancer), read-out: Inhibition% values at 10 μM concentration
Description: as §1

[14] = test system: M14; assay: NCI-60 antiproliferative screening, M14; assay type: cell-based; conditions: Homo sapiens, M14 (Melanoma), read-out: Inhibition% values at 10 μM concentration
Description: as §1

[15] = test system: SK-MEL-2; assay: NCI-60 antiproliferative screening, SK-MEL-2; assay type: cell-based; conditions: Homo sapiens, SK-MEL-2 (Melanoma), read-out: Inhibition% values at 10 μM concentration
Description: as §1

[16] = test system: SK-MEL-28; assay: NCI-60 antiproliferative screening, SK-MEL-28; assay type: cell-based; conditions: Homo sapiens, SK-MEL-28 (Melanoma), read-out: Inhibition% values at 10 μM concentration
Description: as §1

[17] = test system: UACC-62; assay: NCI-60 antiproliferative screening, UACC-62; assay type: cell-based; conditions: Homo sapiens, UACC-62 (Melanoma), read-out: Inhibition% values at 10 μM concentration
Description: as §1

[18] = test system: OVCAR-4; assay: NCI-60 antiproliferative screening, OVCAR-4; assay type: cell-based; conditions: Homo sapiens, OVCAR-4 (Ovarian Cancer), read-out: Inhibition% values at 10 μM concentration
Description: as §1

[19] = test system: OVCAR-5; assay: NCI-60 antiproliferative screening, OVCAR-5; assay type: cell-based; conditions: Homo sapiens, OVCAR-5 (Ovarian Cancer), read-out: Inhibition% values at 10 μM concentration
Description: as §1

[20] = test system: OVCAR-8; assay: NCI-60 antiproliferative screening, OVCAR-8; assay type: cell-based; conditions: Homo sapiens, OVCAR-8 (Ovarian Cancer), read-out: Inhibition% values at 10 μM concentration
Description: as §1

[21] = test system: NCI/ADR-RES; assay: NCI-60 antiproliferative screening, NCI/ADR-RES; assay type: cell-based; conditions: Homo sapiens, NCI/ADR-RES (Ovarian Cancer), read-out: Inhibition% values at 10 μM concentration
Description: as §1

[22] = test system: 786-0; assay: NCI-60 antiproliferative screening, 786-0; assay type: cell-based; conditions: Homo sapiens, 786-0 (Renal Cancer), read-out: Inhibition% values at 10 μM concentration
Description: as §1

[23] = test system: ACHN; assay: NCI-60 antiproliferative screening, ACHN; assay type: cell-based; conditions: Homo sapiens, ACHN (Renal Cancer), read-out: Inhibition% values at 10 μM concentration
Description: as §1

[24] = test system: SN12C; assay: NCI-60 antiproliferative screening, SN12C; assay type: cell-based; conditions: Homo sapiens, SN12C (Renal Cancer), read-out: Inhibition% values at 10 μM concentration
Description: as §1

[25] = test system: UO-31; assay: NCI-60 antiproliferative screening, UO-31; assay type: cell-based; conditions: Homo sapiens, UO-31 (Renal Cancer), read-out: Inhibition% values at 10 μM concentration
Description: as §1

[26] = test system: PC-3; assay: NCI-60 antiproliferative screening, PC-3; assay type: cell-based; conditions: Homo sapiens, PC-3 (Prostate Cancer), read-out: Inhibition% values at 10 μM concentration
Description: as §1

[27] = test system: DU-145; assay: NCI-60 antiproliferative screening, DU-145; assay type: cell-based; conditions: Homo sapiens, DU-145 (Prostate Cancer), read-out: Inhibition% values at 10 μM concentration
Description: as §1

[28] = test system: T-47D; assay: NCI-60 antiproliferative screening, T-47D; assay type: cell-based; conditions: Homo sapiens, T47D, T-47D (Breast Cancer), read-out: Inhibition% values at 10 μM concentration
Description: as §1

T1 sequence (P56524 whole entry): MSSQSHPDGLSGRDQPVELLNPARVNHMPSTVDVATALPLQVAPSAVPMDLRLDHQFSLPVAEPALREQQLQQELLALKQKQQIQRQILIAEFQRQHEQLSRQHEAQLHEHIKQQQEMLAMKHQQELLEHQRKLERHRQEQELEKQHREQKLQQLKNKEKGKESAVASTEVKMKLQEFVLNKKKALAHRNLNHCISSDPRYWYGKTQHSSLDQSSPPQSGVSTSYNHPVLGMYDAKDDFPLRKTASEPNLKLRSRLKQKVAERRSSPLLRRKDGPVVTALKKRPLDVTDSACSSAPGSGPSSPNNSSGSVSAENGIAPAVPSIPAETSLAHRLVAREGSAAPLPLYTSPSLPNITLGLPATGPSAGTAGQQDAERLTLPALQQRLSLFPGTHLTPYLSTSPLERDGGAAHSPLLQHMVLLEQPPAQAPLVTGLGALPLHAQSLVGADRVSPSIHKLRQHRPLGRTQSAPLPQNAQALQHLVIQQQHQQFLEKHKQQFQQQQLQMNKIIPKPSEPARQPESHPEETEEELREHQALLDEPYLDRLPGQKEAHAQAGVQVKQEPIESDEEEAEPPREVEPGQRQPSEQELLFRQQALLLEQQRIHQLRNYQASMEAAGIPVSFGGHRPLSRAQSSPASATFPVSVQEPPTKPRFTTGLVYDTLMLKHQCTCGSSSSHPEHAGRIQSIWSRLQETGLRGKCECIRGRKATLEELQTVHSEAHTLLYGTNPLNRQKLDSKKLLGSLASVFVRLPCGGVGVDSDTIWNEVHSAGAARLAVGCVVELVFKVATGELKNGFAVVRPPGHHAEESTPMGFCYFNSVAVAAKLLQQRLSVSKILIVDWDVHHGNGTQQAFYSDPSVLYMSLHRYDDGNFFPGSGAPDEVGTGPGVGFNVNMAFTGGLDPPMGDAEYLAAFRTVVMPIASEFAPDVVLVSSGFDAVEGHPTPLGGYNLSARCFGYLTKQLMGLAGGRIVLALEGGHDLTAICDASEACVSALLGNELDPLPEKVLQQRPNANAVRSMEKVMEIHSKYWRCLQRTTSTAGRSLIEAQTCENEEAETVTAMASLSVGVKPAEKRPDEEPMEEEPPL

COc1cccc(-c2nc3c(c(-c4cccc(OC)c4)n2)CCN(C(=O)CCCCCCC(=O)NO)C3)c1 [Compound 8f, 8-(2,4-Bis(3-methoxyphenyl)-5,8-dihydropyrido [3,4-d]pyrimidin-7(6H)-yl)-N-hydroxy-8-oxooctanamide]
HDAC4 IC50 [1]: poor activity
IC50 [1]: > 10 µM
HDAC5 IC50 [2]: poor activity
IC50 [2]: > 10 µM
HDAC8 IC50 [3]: poor activity
IC50 [3]: 0.51 µM
inhibition at 10 µM [4]: 85%
inhibition at 10 µM [5]: 100%
inhibition at 10 µM [6]: 84.4%
inhibition at 10 µM [7]: 93.3%
inhibition at 10 µM [8]: 100%
inhibition at 10 µM [9]: 95.5%
inhibition at 10 µM [10]: 95.3%
inhibition at 10 µM [11]: 88.4%
inhibition at 10 µM [12]: 100%
inhibition at 10 µM [13]: 71%
inhibition at 10 µM [14]: 90.5%
inhibition at 10 µM [15]: 100%
inhibition at 10 µM [16]: 100%
inhibition at 10 µM [17]: 100%
inhibition at 10 µM [18]: 67.1%
inhibition at 10 µM [19]: 100%
inhibition at 10 µM [20]: 93.6%
inhibition at 10 µM [21]: 100%
inhibition at 10 µM [22]: 89.1%
inhibition at 10 µM [23]: 100%
inhibition at 10 µM [24]: 100%
inhibition at 10 µM [25]: 100%
inhibition at 10 µM [26]: 83.3%
inhibition at 10 µM [27]: 89.8%
inhibition at 10 µM [28]: 100%
